# Assay results published in patent publication US9833497B2, “Human originated EGF domain proteins and use of the same” (CHENGDU SOURCEBIO LIMITED-LIABILITY COMPANY, priority 2013, dated 2017).
# Legend:
# Type in all cases: cell-based
# Proteus mirabilis = assay: MIC against Gram-negative bacteria: Proteus mirabilis; conditions: for MIC / MIC (μg/mL) P. mirabilis: P. mirabilis, 10 h cultivation at 37° C.
# In short: (§1)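 MIC, the lowest recombinant protein concentration giving no bacterial growth, found by two-fold serial dilution of human EGF-domain proteins in triplicate. Inoculum 5×10^5 CFU/mL in LB from cultures at McFarland 0.5; plates incubated at 37° C, 175 rpm shaking.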
# Serratia marcescens = assay: MIC against Gram-negative bacteria: Serratia marcescens; conditions: for MIC / MIC (μg/mL) S. marcescens: S. marcescens, 10 h cultivation at 37° C.
# In short: as §1
# Pseudomonas aeruginosa = assay: MIC against Gram-negative bacteria: Pseudomonas aeruginosa; conditions: for MIC / MIC (μg/mL) P. aeruginosa: P. aeruginosa, 10 h cultivation at 37° C.
# In short: as §1
# Enterobacter cloacae = assay: MIC against Gram-negative bacteria: Enterobacter cloacae; conditions: for MIC / MIC (μg/mL) E. cloacae: E. cloacae, 10 h cultivation at 37° C.
# In short: as §1
# Citrobacter diversus = assay: MIC against Gram-negative bacteria: Citrobacter diversus; conditions: for MIC / MIC (μg/mL) C. diversus: C. diversus, 10 h cultivation at 37° C.
# In short: as §1
# E. coli DH5α = assay: Antibacterial activity: MIC and growth curve against E. coli DH5α in 96-well plate; conditions: minimal inhibitory concentration against E. coli DH5α; 96-well plate, 5×10^5 CFU/mL, 37° C., judged after 8 h
# In short: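 Log-phase bacteria (OD600 ~0.5) resuspended in LB at 5×10^5 CFU/mL, exposed to recombinant protein at 50, 25, 12.5 μg/mL final in triplicate, 37 °C shaking at 175 rpm. OD600 read every 30 min; MIC is lowest concentration showing no growth.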
# Proteus vulgaris = assay: MIC against Gram-negative bacteria: Proteus vulgaris; conditions: for MIC / MIC (μg/mL) P. vulgaris: P. vulgaris, 10 h cultivation at 37° C.
# In short: as §1
# Klebsiella pneumonia = assay: MIC against Gram-negative bacteria: Klebsiella pneumonia; conditions: for MIC / MIC (μg/mL) K. pneumonia: K. pneumonia, 10 h cultivation at 37° C.
# In short: as §1
# Aeromonas hydrophila = assay: MIC against Gram-negative bacteria: Aeromonas hydrophila; conditions: for MIC / MIC (μg/mL) A. hydrophila: A. hydrophila, 10 h cultivation at 37° C.
# In short: as §1
# Moraxella catarrhalis = assay: MIC against Gram-negative bacteria: Moraxella catarrhalis; conditions: for MIC / MIC (μg/mL) M. catarrhalis: M. catarrhalis, 10 h cultivation at 37° C.
# In short: as §1
# E. coli BL21 = assay: MIC against Gram-negative bacteria: E. coli BL21; conditions: for MIC / MIC (μg/mL) E. coli BL21: E. coli BL21, 10 h cultivation at 37° C.
# In short: as §1
# [1] = 96-well plate, 5×10^5 CFU/mL, 37° C., 10 h
substance,measurement,setting,value
PRT946 (EVDECQNQPCQNGGTCIDLVNHFKCSCPPGTRGLLCE; listed as Homo sapiens),MIC,Proteus mirabilis,25 µg/mL
same,MIC,Serratia marcescens,50 µg/mL
same,MIC,Pseudomonas aeruginosa,50 µg/mL
same,MIC,Enterobacter cloacae,50 µg/mL
same,MIC,Citrobacter diversus,12.5 µg/mL
same,MIC,E. coli DH5α,50 µg/mL
same,MIC,Proteus vulgaris,12.5 µg/mL
same,MIC,Klebsiella pneumonia,12.5 µg/mL
same,MIC,Aeromonas hydrophila,25 µg/mL
same,MIC,Moraxella catarrhalis,50 µg/mL
same,MIC,E. coli BL21,12.5 µg/mL
PRT866 (CQCHGHAARCAARARPPRCHCRHHTTGPGCESCRPSHRDWPWRPATPRHPHPCLP; listed as Homo sapiens),MIC (μg/mL) P. mirabilis,Proteus mirabilis; 5×10^5 CFU/mL,12.5 µg/mL
same,MIC (μg/mL) S. marcescens,Serratia marcescens; 5×10^5 CFU/mL,12.5 µg/mL
same,MIC (μg/mL) P. aeruginosa,Pseudomonas aeruginosa; 5×10^5 CFU/mL,25 µg/mL
same,MIC (μg/mL) E. cloacae,Enterobacter cloacae; 5×10^5 CFU/mL,12.5 µg/mL
same,MIC (μg/mL) C. diversus,Citrobacter diversus; 5×10^5 CFU/mL,12.5 µg/mL
same,MIC,E. coli DH5α,25 µg/mL
same,MIC (μg/mL) P. vulgaris,Proteus vulgaris; 5×10^5 CFU/mL,25 µg/mL
same,MIC (μg/mL) K. pneumonia,Klebsiella pneumonia; 5×10^5 CFU/mL,12.5 µg/mL
same,MIC (μg/mL) A. hydrophila,Aeromonas hydrophila; 5×10^5 CFU/mL,12.5 µg/mL
same,MIC (μg/mL) M. catarrhalis,Moraxella catarrhalis; 5×10^5 CFU/mL,12.5 µg/mL
same,MIC (μg/mL) E. coli BL21,E. coli BL21; 5×10^5 CFU/mL,12.5 µg/mL
PRT827 (HLECSCHNNSTCEPATGTCRCGPGFYGQACE; listed as Homo sapiens),MIC (μg/mL) P. mirabilis,Proteus mirabilis; 5×10^5 CFU/mL,50 µg/mL
same,MIC (μg/mL) S. marcescens,Serratia marcescens; 5×10^5 CFU/mL,50 µg/mL
same,MIC (μg/mL) P. aeruginosa,Pseudomonas aeruginosa; 5×10^5 CFU/mL,12.5 µg/mL
same,MIC (μg/mL) E. cloacae,Enterobacter cloacae; 5×10^5 CFU/mL,50 µg/mL
same,MIC (μg/mL) C. diversus,Citrobacter diversus; 5×10^5 CFU/mL,12.5 µg/mL
same,MIC,E. coli DH5α,12.5 µg/mL
same,MIC (μg/mL) P. vulgaris,Proteus vulgaris; 5×10^5 CFU/mL,12.5 µg/mL
same,MIC (μg/mL) K. pneumonia,Klebsiella pneumonia; 5×10^5 CFU/mL,12.5 µg/mL
same,MIC (μg/mL) A. hydrophila,Aeromonas hydrophila; 5×10^5 CFU/mL,25 µg/mL
same,MIC (μg/mL) M. catarrhalis,Moraxella catarrhalis; 5×10^5 CFU/mL,25 µg/mL
same,MIC (μg/mL) E. coli BL21,E. coli BL21; 5×10^5 CFU/mL,25 µg/mL
PRT422 (DVDECALGTHNCSEAETCHNIQGSFRCLRFECPPNYVQVSKTKCE; listed as Homo sapiens),MIC,Proteus mirabilis; 5×10^5 CFU/mL,25 µg/mL
same,MIC,Serratia marcescens; 5×10^5 CFU/mL,25 µg/mL
same,MIC,Pseudomonas aeruginosa; 5×10^5 CFU/mL,12.5 µg/mL
same,MIC,Enterobacter cloacae; 5×10^5 CFU/mL,12.5 µg/mL
same,MIC,Citrobacter diversus; 5×10^5 CFU/mL,12.5 µg/mL
same,MIC,E. coli DH5α,12.5 µg/mL
same,MIC,Proteus vulgaris; 5×10^5 CFU/mL,12.5 µg/mL
same,MIC,Klebsiella pneumonia; 5×10^5 CFU/mL,25 µg/mL
same,MIC,Aeromonas hydrophila; 5×10^5 CFU/mL,25 µg/mL
same,MIC,Moraxella catarrhalis; 5×10^5 CFU/mL,12.5 µg/mL
same,MIC,E. coli BL21; 5×10^5 CFU/mL,25 µg/mL
PRT811 (FGKNCSFSCSCQNGGTCDSVTGACRCPPGVSGTNCE; listed as Homo sapiens),MIC (μg/mL) P. mirabilis,Proteus mirabilis; 5×10^5 CFU/mL,25 µg/mL
same,MIC (μg/mL) S. marcescens,Serratia marcescens; 5×10^5 CFU/mL,25 µg/mL
same,MIC (μg/mL) P. aeruginosa,Pseudomonas aeruginosa; 5×10^5 CFU/mL,12.5 µg/mL
same,MIC (μg/mL) E. cloacae,Enterobacter cloacae; 5×10^5 CFU/mL,12.5 µg/mL
same,MIC (μg/mL) C. diversus,Citrobacter diversus; 5×10^5 CFU/mL,12.5 µg/mL
same,MIC,E. coli DH5α,12.5 µg/mL
same,MIC (μg/mL) P. vulgaris,Proteus vulgaris; 5×10^5 CFU/mL,25 µg/mL
same,MIC (μg/mL) K. pneumonia,Klebsiella pneumonia; 5×10^5 CFU/mL,12.5 µg/mL
same,MIC (μg/mL) A. hydrophila,Aeromonas hydrophila; 5×10^5 CFU/mL,12.5 µg/mL
same,MIC (μg/mL) M. catarrhalis,Moraxella catarrhalis; 5×10^5 CFU/mL,12.5 µg/mL
same,MIC (μg/mL) E. coli BL21,E. coli BL21; 5×10^5 CFU/mL,25 µg/mL
PRT433 (DIDECRYGYCQQLCANVPGSYSCTCNPGFTLNEDGRSCQ; listed as Homo sapiens),MIC,Proteus mirabilis; 5×10^5 CFU/mL,50 µg/mL
same,MIC,Serratia marcescens; 5×10^5 CFU/mL,50 µg/mL
same,MIC,Pseudomonas aeruginosa; 5×10^5 CFU/mL,12.5 µg/mL
same,MIC,Enterobacter cloacae; 5×10^5 CFU/mL,50 µg/mL
same,MIC,Citrobacter diversus; 5×10^5 CFU/mL,50 µg/mL
same,MIC,E. coli DH5α,12.5 µg/mL
same,MIC,Proteus vulgaris; 5×10^5 CFU/mL,12.5 µg/mL
same,MIC,Klebsiella pneumonia; 5×10^5 CFU/mL,12.5 µg/mL
same,MIC,Aeromonas hydrophila; 5×10^5 CFU/mL,12.5 µg/mL
same,MIC,Moraxella catarrhalis; 5×10^5 CFU/mL,12.5 µg/mL
same,MIC,E. coli BL21; 5×10^5 CFU/mL,25 µg/mL
PRT493 (CDCPHTQNTCDPETGECVCPPHTQGVKCEECEDGHWGYDAEVGCQA; listed as Homo sapiens),MIC against P. mirabilis,Proteus mirabilis; [1],25 µg/mL
same,MIC against S. marcescens,Serratia marcescens; [1],25 µg/mL
same,MIC against P. aeruginosa,Pseudomonas aeruginosa; [1],12.5 µg/mL
same,MIC against E. cloacae,Enterobacter cloacae; [1],25 µg/mL
same,MIC against C. diversus,Citrobacter diversus; [1],25 µg/mL
same,MIC,E. coli DH5α,12.5 µg/mL
same,MIC against P. vulgaris,Proteus vulgaris; [1],12.5 µg/mL
same,MIC against K. pneumonia,Klebsiella pneumonia; [1],50 µg/mL
same,MIC against A. hydrophila,Aeromonas hydrophila; [1],12.5 µg/mL
same,MIC against M. catarrhalis,Moraxella catarrhalis; [1],50 µg/mL
same,MIC against E. coli BL21,E. coli BL21; [1],50 µg/mL
